The source of these data is US20260078103A1, “ISOQUINOLONES AS PI3K INHIBITORS” (OnKure, Inc., priority 2022, published 2026).

In series [1] the test system is phosphorylation of AKT (pAKT) in SKBR3 cells express WT PI3Ka. Description: In vitro cell pAKT (Ser473) HTRF, SKBR3 cells. Format: cell-based. The settings on record: 6 hours. In outline: (§1)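 Cells seeded on plates pre-stamped with 10-point compound dilutions, then grown 6 h at 37 °C (T47D in RPMI/10% FBS/insulin; SKBR3 in McCoy's 5a/10% FBS). Lysates read for pAKT Ser473 by HTRF after overnight antibody incubation. Inhibition normalised to 0.1% DMSO and 10 uM alpelisib; IC50 by four-parameter fit.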
(In general: In TR-FRET formats the signal depends on donor and acceptor labels being close together.)

Series [2] relates to phosphorylation of AKT (pAKT) in T47D cells expressing mutant PI3Ka (H1047R). The experiment in a line: In vitro cell pAKT (Ser473) HTRF, T47D cells. In kind it is cell-based. In short, it runs like this: as §1
For series [3], the system named is SKBR3 cells express WT PI3Ka. The experiment in a line: In vitro cell proliferation, SKBR3 cells (CellTiter-Glo). Format: cell-based. As to conditions: inhibition of proliferation, 72 hours. In outline:
(§2)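 1,500 cells/well seeded onto pre-stamped 10-pt dilution plates; T47D in RPMI + 10% FBS + insulin 0.2 units/mL, SKBR3 in McCoys 5a + 10% FBS. 72 h, 37 °C, 5% CO2. CTG readout. 0% = 0.1% DMSO, 100% = 10 uM Alpelisib; sigmoidal fit gives EC50.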
(In ATP-based viability assays light output follows the ATP content of the culture.)

Series [4] deals with T47D cells expressing mutant PI3Ka (H1047R). Description: In vitro cell proliferation, T47D cells (CellTiter-Glo). In kind it is cell-based. The settings on record: inhibition of proliferation, 72 hours, read-out: Avg T-47D EC50. In outline: as §2
Series [5] can be described thus: Mouse pharmacokinetics, single IV or PO dose, plasma LC/MS/MS. Format: in vivo. The settings on record: CD1 mice; for PK-Mouse: PO F: PO 10 mg/kg vs IV 1 mg/kg; for AUC(0-t) / clearance: mouse, plasma; for clearance: read-out: PK-Mouse: IV Cl. The protocol:
CD1 mice were dosed with a single IV or PO dose, followed by serial sampling of plasma at 0.0833 (IV only), 0.25, 0.5, 1, 2, 4, 8, 24 hours post dose. Desired serial concentrations of working solutions were achieved by diluting stock solution of analyte with 50% acetonitrile in water solution.10 μL of working solutions […] were added to 10 μL of the blank Female CD1 Mouse plasma to achieve calibration standards of 0.5˜1000 ng/ml (0.5, 1, 2, 5, 10, 50, 100, 500, 1000 ng/ml) in a total volume of 20 μL. Five quality control samples at 1 ng/ml, 2 ng/ml, 5 ng/ml, 50 ng/ml and 800 ng/ml for plasma were prepared independently of those used for the calibration curves. These QC samples were prepared on the day of analysis in the same way as calibration standards. 20 μL standards, 20 μL QC samples and 20 μL unknown samples (10 μL plasma with 10 μL blank solution) were added to 200 μL of acetonitrile containing IS mixture for precipitating protein respectively. Then the samples were vortexed for 30 s. after centrifugation at 4° Celsius, 4000 rpm for 15 min. The supernatant was diluted with water at a ratio of 1:2 (V/V, 1:2), Then 5 μL of diluted supernatant was injected into the LC/MS/MS system for quantitative analysis.

Where [6] appears, read: IV 1 mg/kg, 20% PEG400/20% PG/60% of 20% HPβCD solution in water, read-out: PK-Mouse: IV AUC last.
The mark [7] stands for this setting: IV 1 mg/kg, 20% PEG400/20% PG/60% of 20% HPβCD solution in water.
[8] abbreviates: PO 10 mg/kg, 30% SBEβCD in water, read-out: PK-Mouse PO AUC last.
The mark [9] stands for this setting: cellular pAKT, T47D cells, mutant PI3Ka (H1047R), 6 hours; read-out: Avg T-47D IC50.

The structures appear in SMILES notation. Like-named read-outs stand apart in the source and are kept apart here. Bounds are passed on as bounds.

The IC50 is the concentration at which inhibition is half-maximal. As a reminder, the EC50 is the midpoint of the concentration-response curve. Regarding `Cc1cc(C(C)Nc2ccccc2C(=O)O)c2cc(N3CCC(C)(C)CC3)n(C)c(=O)c2c1` (single isomer, unassigned) [Example 1, 2-((1-(3-(4,4-dimethylpiperidin-1-yl)-2,7-dimethyl-1-oxo-1,2-dihydroisoquinolin-5-yl)ethyl)amino)benzoic acid], the IC50 was over 15000 nM in series [1] (Homo sapiens, SK-BR-3, cellular pAKT) and 1 to 500 nM in series [2] (read-out: Avg T-47D IC50; cellular pAKT, T47D cells, mutant PI3Ka (H1047R), 6 hours). The EC50 in series [3] lay within 2000 to 15000 nM; in series [4] it was 1 to 500 nM. In series [5], the “PK-Mouse: PO F” value stood at 50%. Moreover, the AUC(0-t) in series [5] (setting [6]) is 3060 ng·h/mL; in series [5] (setting [8]) it was 15200 ng·h/mL. In series [5] (setting [7]), the clearance turned out to be 5.7 mL/min/kg.

For `Cc1cc(C(C)Nc2ccccc2C(=O)O)c2cc(N3CCN(CC(F)(F)F)CC3)n(C)c(=O)c2c1` (single isomer, unassigned) [Example 8, 2-((1-(2,7-dimethyl-1-oxo-3-(4-(2,2,2-trifluoroethyl)piperazin-1-yl)-1,2-dihydroisoquinolin-5-yl)ethyl)amino)benzoic acid], the IC50 in series [1] (cellular pAKT) lay in the range of 2000 to 15000 nM; in series [2] (setting [9]) it was 1 to 500 nM. Further, the figures for the concentration giving a half-maximal response (EC50) in series [3] and in series [4] were 2000 to 15000 nM and 1 to 500 nM, respectively. Besides, in series [5], the “PK-Mouse: PO F” value came to 62%. The AUC(0-t) in series [5] (setting [6]) turned out to be 1440 ng·h/mL; in series [5] (setting [8]), 8900 ng·h/mL. Also, the clearance in series [5] (setting [7]) stood at 11.7 mL/min/kg.

Turning to `Cc1cc(C(C)Nc2ccc(Cl)nc2C(=O)O)c2cc(C3=CCC(C)(C)CC3)n(C)c(=O)c2c1` (single isomer, unassigned) [Example 23, 6-chloro-3-((1-(3-(4,4-dimethylcyclohex-1-en-1-yl)-2,7-dimethyl-1-oxo-1,2-dihydroisoquinolin-5-yl)ethyl)amino)picolinic acid], the IC50 is over 15000 nM in series [1] (cellular pAKT) and 500 to 2000 nM in series [2] (setting [9]). Further, the figures for the EC50 in series [3] and in series [4] were 2000 to 15000 nM and 1 to 500 nM, respectively. Further, the “PK-Mouse: PO F” value in series [5] came to 106%. Besides, the AUC(0-t) came out at 683 ng·h/mL in series [5] (setting [6]) and 7230 ng·h/mL in series [5] (setting [8]). Further, in series [5] (setting [7]), the clearance amounted to 24.6 mL/min/kg.
